Among the data in PubChem BioAssay (NCI) are TGI and GI50 values, retold here.

Test systems include PC-3 prostate; OVCAR-8 ovarian; SF-539 CNS; MDA-MB-231 breast; HL-60(TB) leukemia; MOLT-4 leukemia; OVCAR-4 ovarian; MCF7 breast; A549 NSCLC; BT-549 breast.
Holding throughout (experiment): NCI tumour cell line growth inhibition, 48 h

Molecules are shown by their SMILES.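 Tested at 5 concentrations; 48 h exposure; 96-well plates; endpoints linearly interpolated, else capped at highest concentration. GI50: concentration for 50% inhibition of growth. The concentration for full growth arrest is given as TGI.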

Regarding `c1csc(-c2csc(-c3cccs3)c2)c1`, the TGI with PC-3 prostate was 82.7 µM; in the experiment on OVCAR-8 ovarian it was more than 100 µM; in the experiment on SF-539 CNS, more than 100 µM; in the experiment on MDA-MB-231 breast, more than 100 µM; in the experiment on HL-60(TB) leukemia it was more than 100 µM; in the experiment on MOLT-4 leukemia it was 89.2 µM. Further, the TGI in the experiment with OVCAR-4 ovarian was more than 100 µM; in the experiment with MCF7 breast, 75.2 µM; in the experiment on A549 NSCLC it was more than 100 µM.
In the case of `O=C(NNc1ccc([N+](=O)[O-])cc1)C1OC(CO)C(O)C1O` (stereo not given), the TGI in the experiment with OVCAR-8 ovarian, in the experiment on SF-539 CNS, with HL-60(TB) leukemia, in the experiment on MOLT-4 leukemia, in the experiment on OVCAR-4 ovarian and with A549 NSCLC was more than 100 µM in each case.
Regarding `O/N=C1/CCCCC1NO` (stereo not given), the TGI in the experiment on PC-3 prostate, with OVCAR-8 ovarian, in the experiment on SF-539 CNS, in the experiment with MDA-MB-231 breast, with HL-60(TB) leukemia and with MOLT-4 leukemia was more than 100 µM throughout. Besides, the TGI with OVCAR-4 ovarian, in the experiment with MCF7 breast and with A549 NSCLC was more than 100 µM throughout.
In the case of `CC(=O)Oc1ccc(-c2c(OC(C)=O)c(OC(C)=O)c(-c3ccc(OC(C)=O)c(OC(C)=O)c3)c(OC(C)=O)c2OC(C)=O)cc1`, the TGI in the experiment on PC-3 prostate is 31 µM; with OVCAR-8 ovarian it was 28.2 µM; with SF-539 CNS it was 34.3 µM; in the experiment with MDA-MB-231 breast, 35.4 µM; in the experiment with HL-60(TB) leukemia, 43.7 µM; in the experiment with MOLT-4 leukemia it was 44.3 µM. Moreover, the figures for the TGI with OVCAR-4 ovarian, in the experiment on MCF7 breast and in the experiment on A549 NSCLC were 31.8 µM, 50.6 µM and 37.8 µM, respectively.
As for `Nc1ncc(Cc2nn3c(COc4ccc(Cl)cc4)nnc3s2)s1`, the TGI with PC-3 prostate, in the experiment with OVCAR-8 ovarian, in the experiment with SF-539 CNS, with MDA-MB-231 breast, with HL-60(TB) leukemia and in the experiment with MOLT-4 leukemia was more than 100 µM in each case. For the same molecule, the TGI in the experiment on OVCAR-4 ovarian, in the experiment on MCF7 breast and in the experiment on A549 NSCLC was more than 100 µM in each case.
As for `C=C1C(=O)OC2C1CC1OC2C(C)CCC/C(C)=C\CCC1(C)O` (stereo not given), the TGI in the experiment on OVCAR-8 ovarian is 31.4 µM; with SF-539 CNS, 48.7 µM; with HL-60(TB) leukemia, 21.2 µM; in the experiment with MOLT-4 leukemia, 21 µM; in the experiment with OVCAR-4 ovarian it was 56.6 µM; in the experiment on MCF7 breast, 57.4 µM. This molecule yielded a TGI in the experiment on A549 NSCLC of more than 78.3 µM.
With `Cc1ccc(NC(=O)NC23CC4CC(CC(F)(C4)C2)C3)cc1`, the TGI in the experiment with OVCAR-8 ovarian, in the experiment on SF-539 CNS, with HL-60(TB) leukemia, in the experiment on MOLT-4 leukemia and with A549 NSCLC was more than 100 µM in each case.
With `CC1=NN(C(=O)Cc2ccccc2)C(=O)/C1=C\c1cccc(O)c1`, the TGI in the experiment on OVCAR-8 ovarian, with SF-539 CNS, in the experiment on HL-60(TB) leukemia, in the experiment with MOLT-4 leukemia, with OVCAR-4 ovarian and in the experiment on A549 NSCLC was more than 100 µM throughout.
Consider `OCC(CO)CC1COc2ccccc2O1` (stereo not given), for which the TGI with PC-3 prostate, in the experiment on OVCAR-8 ovarian, with SF-539 CNS, in the experiment on MDA-MB-231 breast, in the experiment with HL-60(TB) leukemia and in the experiment on MOLT-4 leukemia was more than 10 µM throughout. For the same molecule, the TGI in the experiment with OVCAR-4 ovarian, with MCF7 breast and with A549 NSCLC was more than 10 µM in each case.
With `CCC[CH2][Ge]([CH2]CCC)([CH2]CCC)[O]C(=O)CCl`, the GI50 is 5.19 µM with OVCAR-8 ovarian; 1.65 µM in the experiment with SF-539 CNS; 0.856 µM in the experiment with MOLT-4 leukemia; 2.76 µM in the experiment with OVCAR-4 ovarian; 1.01 µM in the experiment on A549 NSCLC. The TGI stood at 22 µM in the experiment on OVCAR-8 ovarian; 6.85 µM in the experiment with SF-539 CNS; 29.9 µM in the experiment with MOLT-4 leukemia; 21.5 µM in the experiment with OVCAR-4 ovarian; 17.3 µM in the experiment with A549 NSCLC.
In the case of `CC1Oc2c(c(O)cc3oc(=O)cc(-c4ccccc4)c23)C(=O)C1C` (stereo not given), the TGI in the experiment on OVCAR-8 ovarian, in the experiment with SF-539 CNS, in the experiment on HL-60(TB) leukemia and in the experiment on MOLT-4 leukemia was more than 100 µM throughout.
In the case of `C#Cc1ccccc1C(=O)OC`, the TGI in the experiment on OVCAR-8 ovarian, with SF-539 CNS, with HL-60(TB) leukemia, in the experiment on MOLT-4 leukemia, with OVCAR-4 ovarian and in the experiment on A549 NSCLC was more than 100 µM each time.
Take `O=[N+]([O-])c1ccc(-c2nc3ccccc3o2)cc1`: the TGI in the experiment with PC-3 prostate, in the experiment on OVCAR-8 ovarian, in the experiment with SF-539 CNS, with MOLT-4 leukemia, with OVCAR-4 ovarian and in the experiment with MCF7 breast was more than 100 µM throughout. Also, the TGI in the experiment on A549 NSCLC and with BT-549 breast was more than 100 µM throughout.
Turning to `CC[N+]1(C)CCC(O)(/C=C/c2ccc(Cl)c(Cl)c2)C(C(=O)/C=C/c2ccc(Cl)c(Cl)c2)C1` (stereo not given), the TGI stood at 5.19 µM in the experiment on PC-3 prostate; 8.97 µM in the experiment on OVCAR-8 ovarian; 9.13 µM in the experiment with SF-539 CNS; 5.17 µM with MOLT-4 leukemia; 6.52 µM with MCF7 breast; 15.7 µM with A549 NSCLC. Besides, the TGI with BT-549 breast is 7.44 µM.
For `CN(CCc1ccccn1)C(=S)N/N=C/c1ccccn1`, the TGI with PC-3 prostate was more than 58.1 µM; with SF-539 CNS, 0.365 µM; in the experiment on MDA-MB-231 breast, 0.982 µM; in the experiment on HL-60(TB) leukemia, less than 0.01 µM; in the experiment with MOLT-4 leukemia it was less than 0.025 µM; in the experiment on OVCAR-4 ovarian it was 21.4 µM. Also, the TGI in the experiment on MCF7 breast is more than 100 µM; in the experiment with A549 NSCLC, 3.75 µM.
As for `Brc1ccc2[nH]cc(-c3nc(-c4c[nH]c5ccncc45)cs3)c2c1`, the GI50 in the experiment on PC-3 prostate is 1.58 µM; in the experiment with SF-539 CNS, 1.72 µM; with MDA-MB-231 breast it was 1.52 µM. The results for the TGI in the experiment on PC-3 prostate, with SF-539 CNS and in the experiment with MDA-MB-231 breast were 3.06 µM, 3.11 µM and 2.95 µM, respectively.
Turning to `O.O=[Se](=O)(O)O.[NH-]C1CCCCC1[NH-].[Pt+2]` (stereo not given), the GI50 is 7.55 µM in the experiment on OVCAR-8 ovarian; 25.3 µM in the experiment with SF-539 CNS; 3.22 µM with HL-60(TB) leukemia; 2.79 µM in the experiment with MOLT-4 leukemia; 11.6 µM in the experiment on OVCAR-4 ovarian; 3.49 µM in the experiment on MCF7 breast. For the same molecule, the GI50 with A549 NSCLC is 5.26 µM. Besides, the TGI was more than 100 µM with OVCAR-8 ovarian; more than 100 µM in the experiment on SF-539 CNS; 33.8 µM in the experiment on HL-60(TB) leukemia; more than 100 µM in the experiment on MOLT-4 leukemia; more than 100 µM in the experiment on OVCAR-4 ovarian; more than 47.1 µM in the experiment with MCF7 breast. Moreover, the TGI in the experiment on A549 NSCLC was more than 100 µM.
For `NCCCN1CCN(CCCNc2ccc3ncn4c5ccccc5c(=O)c2c34)CC1`, the TGI in the experiment on PC-3 prostate was 10.8 µM; in the experiment with OVCAR-8 ovarian it was 19.5 µM; with SF-539 CNS, 7.19 µM; in the experiment on MDA-MB-231 breast it was 3.71 µM; in the experiment on HL-60(TB) leukemia, 10.1 µM; with MOLT-4 leukemia, more than 25 µM. Moreover, the TGI in the experiment with OVCAR-4 ovarian is 2.89 µM; in the experiment with MCF7 breast it was more than 25 µM; in the experiment with A549 NSCLC it was more than 25 µM.
In the case of `O=C(c1ccccc1)c1ccc2c(c1)N=C(c1ccc(Cl)c(Cl)c1)CC(c1ccc3ccccc3c1)N2` (stereo not given), the TGI with OVCAR-8 ovarian, in the experiment on SF-539 CNS, with HL-60(TB) leukemia, in the experiment with MOLT-4 leukemia, in the experiment on OVCAR-4 ovarian and with A549 NSCLC was more than 100 µM in each case.
Take `COc1cccc2c1C(=O)c1c(O)c3c(c(O)c1C2=O)C[C@](O)(C(=O)CO)CC3OC1CC(N)C(OC2CCCCO2)C(C)O1` (stereo not given in full): the TGI in the experiment with OVCAR-8 ovarian was determined as 14 µM; in the experiment with SF-539 CNS it was 1.41 µM; in the experiment with HL-60(TB) leukemia it was 0.294 µM; in the experiment with MOLT-4 leukemia it was 0.0342 µM; in the experiment on OVCAR-4 ovarian, 4.2 µM; with MCF7 breast it was 12.1 µM. In addition, in the experiment with A549 NSCLC, the TGI was determined as 13.3 µM.
With `O=C1C(=O)C(CCCO)(CCCO)CCCCCCCCC1(CCCO)CCCO`, the TGI is more than 100 µM in the experiment with PC-3 prostate; more than 100 µM in the experiment on OVCAR-8 ovarian; more than 100 µM with SF-539 CNS; 29.9 µM with HL-60(TB) leukemia; more than 100 µM in the experiment on OVCAR-4 ovarian; more than 100 µM in the experiment with MCF7 breast. For the same molecule, the TGI in the experiment with A549 NSCLC is more than 100 µM.
Take `CC(=O)N/N=C1\NN(C(C)=O)C2(S1)C(=O)Nc1ccccc12` (stereo not given): the TGI with PC-3 prostate, in the experiment on OVCAR-8 ovarian, with SF-539 CNS, in the experiment on MDA-MB-231 breast, in the experiment with HL-60(TB) leukemia and with MOLT-4 leukemia was more than 100 µM each time. The TGI in the experiment on OVCAR-4 ovarian and in the experiment on MCF7 breast was more than 100 µM throughout.
Turning to `COc1ccc(/C(Cl)=C(\C=O)c2ccc(Cl)cc2)cc1`, the TGI is 45.6 µM in the experiment with OVCAR-8 ovarian; 16.6 µM in the experiment on HL-60(TB) leukemia; 7.81 µM with MOLT-4 leukemia; more than 100 µM in the experiment on OVCAR-4 ovarian; more than 100 µM with A549 NSCLC.
In the case of `Clc1cccc(Cl)c1C1ON=C(c2ccccc2)N1C12CC3CC(CC(C3)C1)C2` (stereo not given), the TGI was 29.9 µM with PC-3 prostate; more than 100 µM in the experiment with OVCAR-8 ovarian; more than 100 µM in the experiment on SF-539 CNS; more than 100 µM with MDA-MB-231 breast; 8.72 µM in the experiment on HL-60(TB) leukemia; 46.3 µM in the experiment on MOLT-4 leukemia. Moreover, the TGI with OVCAR-4 ovarian, in the experiment with MCF7 breast and in the experiment on A549 NSCLC was more than 100 µM throughout.
`CN(c1ccccc1)c1c(-c2ccccc2)c(=O)oc2c1ccc1occc12`: the TGI in the experiment on OVCAR-8 ovarian, in the experiment on SF-539 CNS, with HL-60(TB) leukemia, in the experiment with MOLT-4 leukemia, in the experiment on OVCAR-4 ovarian and in the experiment on MCF7 breast was more than 100 µM each time. For the same molecule, the TGI in the experiment on A549 NSCLC was more than 100 µM.
